Measurements: patent US12492173B2, “Herbicidal substituted N-tetrazolyl aryl carboxamides” (Bayer Aktiengesellschaft, priority 2019, dated 2025)

tested on: Matricaria inodora; test: Pre-emergence herbicidal action, MATIN; format: in vivo; details: dosage 320 g/ha
Summary of the method: (§1)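 Herbicidal activity is expressed in percent, scored by eye after a 3-week greenhouse period, with 0% matching untreated plants and 100% meaning death. Compounds, as wettable powders or emulsion concentrates, are applied pre-emergence to the covering soil.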

In order of rising “herbicidal action MATIN” value:
1. CSCc1c(C)ccc(C(=O)Nc2nnnn2C)c1Cl [Example 1-287]  90%
2. CCn1nnnc1NC(=O)c1ccc(Cl)c(CSC)c1Cl [Example 2-559]  90%
3. CCn1nnnc1NC(=O)c1ccc(C(F)(F)F)c(CS(=O)(=O)CC)c1Cl [Example 2-301]  100%
4. CCCn1nnnc1NC(=O)c1ccc(C(F)(F)F)c(CSCC(F)(F)F)c1Cl [Example 3-311]  100%
5. CCS(=O)(=O)Cc1c(C(F)(F)F)ccc(C(=O)Nc2nnnn2C)c1C [Example 1-88]  100%

same assay, conditions: dosage 320 g/ha, scored visually after 3 weeks vs untreated controls (100% = plants have died)

In order of rising “herbicidal activity MATIN” value:
1. CCSCc1c(C(F)F)ccc(C(=O)Nc2nnnn2C)c1Cl [Example 1-323]  90%
2. CCn1nnnc1NC(=O)c1ccc(C(F)(F)F)c(C[S+]([O-])CC)c1Br (stereo not shown) [Example 2-384]  100%
3. CCn1nnnc1NC(=O)c1ccc(C(F)F)c(C[S+]([O-])CC)c1Cl (stereo not shown) [Example 2-324]  100%
4. CC[S+]([O-])Cc1c(C(F)(F)F)ccc(C(=O)Nc2nnnn2C)c1Cl (racemic) [Example 1-300]  100%
5. Cn1nnnc1NC(=O)c1ccc(C(F)F)c(CS(C)(=O)=O)c1Cl [Example 1-322]  100%
6. CCS(=O)(=O)Cc1c(C(F)F)ccc(C(=O)Nc2nnnn2C)c1Cl [Example 1-325]  100%

tested on: Veronica persica; test: Pre-emergence herbicidal action, VERPE; format: in vivo; details: dosage 320 g/ha
Summary of the method: as §1

In order of falling “herbicidal action VERPE” value:
1. CSCc1c(C)ccc(C(=O)Nc2nnnn2C)c1Cl [Example 1-287]  100%
2. CCn1nnnc1NC(=O)c1ccc(C(F)(F)F)c(CS(=O)(=O)CC)c1Cl [Example 2-301]  100%
3. CCCn1nnnc1NC(=O)c1ccc(C(F)(F)F)c(CSCC(F)(F)F)c1Cl [Example 3-311]  100%
4. CCn1nnnc1NC(=O)c1ccc(Cl)c(CSC)c1Cl [Example 2-559]  100%
5. CCS(=O)(=O)Cc1c(C(F)(F)F)ccc(C(=O)Nc2nnnn2C)c1C [Example 1-88]  100%

same assay, conditions: dosage 320 g/ha, scored visually after 3 weeks vs untreated controls (100% = plants have died)

In order of falling “herbicidal activity VERPE” value:
1. CCn1nnnc1NC(=O)c1ccc(C(F)(F)F)c(C[S+]([O-])CC)c1Br (stereo not shown) [Example 2-384]  100%
2. CCSCc1c(C(F)F)ccc(C(=O)Nc2nnnn2C)c1Cl [Example 1-323]  100%
3. CCn1nnnc1NC(=O)c1ccc(C(F)F)c(C[S+]([O-])CC)c1Cl (stereo not shown) [Example 2-324]  100%
4. CC[S+]([O-])Cc1c(C(F)(F)F)ccc(C(=O)Nc2nnnn2C)c1Cl (racemic) [Example 1-300]  100%
5. Cn1nnnc1NC(=O)c1ccc(C(F)F)c(CS(C)(=O)=O)c1Cl [Example 1-322]  100%
6. CCS(=O)(=O)Cc1c(C(F)F)ccc(C(=O)Nc2nnnn2C)c1Cl [Example 1-325]  100%

tested on: Abutilon theophrasti; test: Post-emergence herbicidal action, ABUTH; format: in vivo; set-up: key: % herbicidal action vs untreated; 100 = plants died, 0 = like control; details: Dosage 80 g/ha
Summary of the method: (§2)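 Percent herbicidal effect was rated visually about 3 weeks after treatment, relative to untreated plants (0% = like control, 100% = dead). Compounds, formulated as WP or EC, went on as aqueous spray (600–800 l/ha, 0.2% wetting agent) to one-leaf-stage plants 2–3 weeks post-sowing in sandy loam.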

In order of falling “herbicidal action ABUTH” value:
1. CSCc1c(C)ccc(C(=O)Nc2nnnn2C)c1Cl [Example 1-287]  100
2. CCS(=O)(=O)Cc1c(C(F)F)ccc(C(=O)Nc2nnnn2C)c1Cl [Example 1-325]  100
3. CCCn1nnnc1NC(=O)c1ccc(C(F)(F)F)c(CSCC(F)(F)F)c1Cl [Example 3-311]  100
4. CCn1nnnc1NC(=O)c1ccc(Cl)c(CSC)c1Cl [Example 2-559]  90
5. CCn1nnnc1NC(=O)c1ccc(C(F)(F)F)c(CS(=O)(=O)CC)c1Cl [Example 2-301]  80
6. CCS(=O)(=O)Cc1c(C(F)(F)F)ccc(C(=O)Nc2nnnn2C)c1C [Example 1-88]  80

same assay, conditions: post-emergence, dosage 80 g/ha

In order of rising “herbicidal action ABUTH” value:
1. CC[S+]([O-])Cc1c(C(F)(F)F)ccc(C(=O)Nc2nnnn2C)c1Cl (racemic) [Example 1-300]  90%
2. CCn1nnnc1NC(=O)c1ccc(C(F)(F)F)c(C[S+]([O-])CC)c1Br (stereo not shown) [Example 2-384]  100%
3. CCSCc1c(C(F)F)ccc(C(=O)Nc2nnnn2C)c1Cl [Example 1-323]  100%
4. CCn1nnnc1NC(=O)c1ccc(C(F)F)c(C[S+]([O-])CC)c1Cl (stereo not shown) [Example 2-324]  100%
5. Cn1nnnc1NC(=O)c1ccc(C(F)F)c(CS(C)(=O)=O)c1Cl [Example 1-322]  100%

tested on: Alopecurus myosuroides; test: Post-emergence herbicidal action, ALOMY; format: in vivo; set-up: key: % herbicidal action vs untreated; 100 = plants died, 0 = like control; details: Dosage 80 g/ha
Summary of the method: as §2

In order of rising “herbicidal action ALOMY” value:
1. CCn1nnnc1NC(=O)c1ccc(C(F)(F)F)c(CS(=O)(=O)CC)c1Cl [Example 2-301]  80
2. CCS(=O)(=O)Cc1c(C(F)(F)F)ccc(C(=O)Nc2nnnn2C)c1C [Example 1-88]  80
3. CSCc1c(C)ccc(C(=O)Nc2nnnn2C)c1Cl [Example 1-287]  90
4. CCS(=O)(=O)Cc1c(C(F)F)ccc(C(=O)Nc2nnnn2C)c1Cl [Example 1-325]  90
5. CCn1nnnc1NC(=O)c1ccc(Cl)c(CSC)c1Cl [Example 2-559]  90
6. CCCn1nnnc1NC(=O)c1ccc(C(F)(F)F)c(CSCC(F)(F)F)c1Cl [Example 3-311]  100

same assay, conditions: post-emergence, dosage 80 g/ha

In order of falling “herbicidal action ALOMY” value:
1. CCn1nnnc1NC(=O)c1ccc(C(F)(F)F)c(C[S+]([O-])CC)c1Br (stereo not shown) [Example 2-384]  90%
2. CCSCc1c(C(F)F)ccc(C(=O)Nc2nnnn2C)c1Cl [Example 1-323]  90%
3. CCn1nnnc1NC(=O)c1ccc(C(F)F)c(C[S+]([O-])CC)c1Cl (stereo not shown) [Example 2-324]  90%
4. CC[S+]([O-])Cc1c(C(F)(F)F)ccc(C(=O)Nc2nnnn2C)c1Cl (racemic) [Example 1-300]  90%
5. Cn1nnnc1NC(=O)c1ccc(C(F)F)c(CS(C)(=O)=O)c1Cl [Example 1-322]  90%

tested on: Echinochloa crus-galli; test: Post-emergence herbicidal action, ECHCG; format: in vivo; set-up: key: % herbicidal action vs untreated; 100 = plants died, 0 = like control; details: Dosage 80 g/ha
Summary of the method: as §2

In order of rising “herbicidal action ECHCG” value:
1. CCn1nnnc1NC(=O)c1ccc(C(F)(F)F)c(CS(=O)(=O)CC)c1Cl [Example 2-301]  90
2. CCS(=O)(=O)Cc1c(C(F)(F)F)ccc(C(=O)Nc2nnnn2C)c1C [Example 1-88]  90
3. CSCc1c(C)ccc(C(=O)Nc2nnnn2C)c1Cl [Example 1-287]  100
4. CCS(=O)(=O)Cc1c(C(F)F)ccc(C(=O)Nc2nnnn2C)c1Cl [Example 1-325]  100
5. CCCn1nnnc1NC(=O)c1ccc(C(F)(F)F)c(CSCC(F)(F)F)c1Cl [Example 3-311]  100
6. CCn1nnnc1NC(=O)c1ccc(Cl)c(CSC)c1Cl [Example 2-559]  100

same assay, conditions: post-emergence, dosage 80 g/ha

In order of rising “herbicidal action ECHCG” value:
1. CCn1nnnc1NC(=O)c1ccc(C(F)(F)F)c(C[S+]([O-])CC)c1Br (stereo not shown) [Example 2-384]  90%
2. CCSCc1c(C(F)F)ccc(C(=O)Nc2nnnn2C)c1Cl [Example 1-323]  100%
3. CCn1nnnc1NC(=O)c1ccc(C(F)F)c(C[S+]([O-])CC)c1Cl (stereo not shown) [Example 2-324]  100%
4. CC[S+]([O-])Cc1c(C(F)(F)F)ccc(C(=O)Nc2nnnn2C)c1Cl (racemic) [Example 1-300]  100%
5. Cn1nnnc1NC(=O)c1ccc(C(F)F)c(CS(C)(=O)=O)c1Cl [Example 1-322]  100%

tested on: Setaria viridis; test: Post-emergence herbicidal action, SETVI; format: in vivo; set-up: key: % herbicidal action vs untreated; 100 = plants died, 0 = like control; details: Dosage 80 g/ha
Summary of the method: as §2

In order of falling “herbicidal action SETVI” value:
1. CCS(=O)(=O)Cc1c(C(F)F)ccc(C(=O)Nc2nnnn2C)c1Cl [Example 1-325]  100
2. CCn1nnnc1NC(=O)c1ccc(Cl)c(CSC)c1Cl [Example 2-559]  100
3. CSCc1c(C)ccc(C(=O)Nc2nnnn2C)c1Cl [Example 1-287]  90
4. CCn1nnnc1NC(=O)c1ccc(C(F)(F)F)c(CS(=O)(=O)CC)c1Cl [Example 2-301]  90
5. CCS(=O)(=O)Cc1c(C(F)(F)F)ccc(C(=O)Nc2nnnn2C)c1C [Example 1-88]  90
6. CCCn1nnnc1NC(=O)c1ccc(C(F)(F)F)c(CSCC(F)(F)F)c1Cl [Example 3-311]  80

same assay, conditions: comparative experiment, post-emergence, 5 g of a.i./ha

CCSCc1c(C(F)F)ccc(C(=O)Nc2nnnn2C)c1Cl [Example 1-323] was tested, and the “Herbicidal action against SETVI” value was 100.

same assay, conditions: post-emergence, dosage 80 g/ha

In order of falling “herbicidal action SETVI” value:
1. CCSCc1c(C(F)F)ccc(C(=O)Nc2nnnn2C)c1Cl [Example 1-323]  100%
2. Cn1nnnc1NC(=O)c1ccc(C(F)F)c(CS(C)(=O)=O)c1Cl [Example 1-322]  100%
3. CCn1nnnc1NC(=O)c1ccc(C(F)(F)F)c(C[S+]([O-])CC)c1Br (stereo not shown) [Example 2-384]  90%
4. CCn1nnnc1NC(=O)c1ccc(C(F)F)c(C[S+]([O-])CC)c1Cl (stereo not shown) [Example 2-324]  90%
5. CC[S+]([O-])Cc1c(C(F)(F)F)ccc(C(=O)Nc2nnnn2C)c1Cl (racemic) [Example 1-300]  90%
